Results taken from US12215093B2, “Bicyclic carboxamides and methods of use thereof” (Tempest Therapeutics, Inc., priority 2018, dated 2025).

Key:
EP4 = biological target: T1, EP4 (Homo sapiens, UniProt P35408); test: Functional calcium flux assay, EP4; format: cell-based; settings: stably transfected HEK293 cells; PGE2 10 nM; read-out: EP4 Ca2+-flux assay IC50
T1 construct: host or cells: stably transfected HEK293 cells co-expressing a promiscuous G protein and a clytin variant

EP2 = EP2 (Homo sapiens, UniProt P43116);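 note: functional calcium flux assay in stably transfected HEK293 cells expressing EP2 coupled via a promiscuous G protein, clytin luminescence read as area under the curve, 30 min compound preincubation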
Chain of EP2 (P43116 whole entry): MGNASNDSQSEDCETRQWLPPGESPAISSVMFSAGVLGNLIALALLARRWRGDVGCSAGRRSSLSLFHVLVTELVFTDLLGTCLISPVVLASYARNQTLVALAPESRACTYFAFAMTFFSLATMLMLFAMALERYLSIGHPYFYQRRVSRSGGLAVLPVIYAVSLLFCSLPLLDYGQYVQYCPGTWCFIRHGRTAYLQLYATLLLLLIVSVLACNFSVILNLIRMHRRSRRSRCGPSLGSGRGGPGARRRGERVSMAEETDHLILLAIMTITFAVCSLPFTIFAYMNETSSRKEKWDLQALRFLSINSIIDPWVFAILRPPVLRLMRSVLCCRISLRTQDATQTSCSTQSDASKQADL

T1 sequence (P35408 whole entry): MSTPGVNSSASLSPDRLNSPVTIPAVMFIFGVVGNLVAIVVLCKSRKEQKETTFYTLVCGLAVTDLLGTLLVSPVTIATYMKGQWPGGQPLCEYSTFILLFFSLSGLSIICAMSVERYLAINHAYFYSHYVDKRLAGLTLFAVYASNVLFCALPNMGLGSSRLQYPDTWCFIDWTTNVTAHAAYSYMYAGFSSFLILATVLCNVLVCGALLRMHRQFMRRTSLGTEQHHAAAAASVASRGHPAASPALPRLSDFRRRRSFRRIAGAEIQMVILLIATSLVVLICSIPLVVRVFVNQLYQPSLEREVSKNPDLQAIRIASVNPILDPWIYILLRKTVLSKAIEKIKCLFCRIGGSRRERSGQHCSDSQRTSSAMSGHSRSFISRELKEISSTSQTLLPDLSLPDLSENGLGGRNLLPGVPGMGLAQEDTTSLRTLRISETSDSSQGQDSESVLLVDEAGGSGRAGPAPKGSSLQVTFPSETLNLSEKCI

Row | IC50 (EP4) [nM] | IC50 (EP2) [nM] | Compound
1 | < 1 | 46 | N#Cc1cccc(-c2ccc(Cn3ccc4c(F)ccc(C(=O)NC5CC6(C5)CC(C(=O)O)C6)c43)cc2)c1 (stereo not shown) [Example 55, (Sa)-6-(1-((3’-cyano-[1,1′-biphenyl]-4-yl)methyl)-4-fluoro-1H-indole-7-carboxamido)spiro[3.3]heptane-2-carboxylic acid]
2 | < 1 | 99 | O=C(NC1CC2(C1)CC(C(=O)O)C2)c1ccc(F)c2ccn(Cc3ccc(-c4cccc(OC5COC5)c4)cc3)c12 (stereo not shown) [Example 57, (Sa)-6-(4-fluoro-1-((3′-(oxetane-3-yloxy)-[1,1′-biphenyl]-4-yl)methyl)-1H-indole-7-carboxamido)spiro[3.3]heptane-2-carboxylic acid]
3 | 2.4 | 95 | CCOc1nccc(-c2ccc(Cn3ccc4c(F)ccc(C(=O)NC5CC6(C5)CC(C(=O)O)C6)c43)cc2)n1 (stereo not shown) [Example 58, (Sa)-6-(1-(4-(2-ethoxypyrimidin-4-yl)benzyl)-4-fluoro-1H-indole-7-carboxamido)spiro[3.3]heptane-2-carboxylic acid]
4 | 2.5 | 51 | COc1cc(C#N)cc(-c2ccc(Cn3ccc4c(F)ccc(C(=O)NC5CC6(C5)CC(C(=O)O)C6)c43)cc2)n1 (stereo not shown) [Example 59, (Sa)-6-(1-(4-(4-cyano-6-methoxypyridin-2-yl)benzyl)-4-fluoro-1H-indole-7-carboxamido)spiro[3.3]heptane-2-carboxylic acid]
5 | < 1 | 40 | CNC(=O)c1cc(-c2ccc(Cn3ccc4c(F)ccc(C(=O)NC5CC6(C5)CC(C(=O)O)C6)c43)cc2)ccn1 (stereo not shown) [Example 60, (Sa)-6-(4-fluoro-1-(4-(2-(methylcarbamoyl)pyridin-4-yl)benzyl)-1H-indole-7-carboxamido)spiro[3.3]heptane-2-carboxylic acid]
6 | < 1 | < 25 | CCNC(=O)c1cc(-c2ccc(Cn3ccc4c(F)ccc(C(=O)NC5CC6(C5)CC(C(=O)O)C6)c43)cc2)ccn1 (stereo not shown) [Example 61, (Sa)-6-(1-(4-(2-(ethylcarbamoyl)pyridin-4-yl)benzyl)-4-fluoro-1H-indole-7-carboxamido)spiro[3.3]heptane-2-carboxylic acid]
7 | < 1 | 54 | CNC(=O)c1cccc(-c2ccc(Cn3ccc4c(F)ccc(C(=O)NC5CC6(C5)CC(C(=O)O)C6)c43)cc2)n1 (stereo not shown) [Example 62, (Sa)-6-(4-fluoro-1-(4-(6-(methylcarbamoyl)pyridin-2-yl)benzyl)-1H-indole-7-carboxamido)spiro[3.3]heptane-2-carboxylic acid]
8 | < 1 | 90 | CNC(=O)c1ccc(-c2ccc(Cn3ccc4c(F)ccc(C(=O)NC5CC6(C5)CC(C(=O)O)C6)c43)cc2)cn1 (stereo not shown) [Example 63, (Sa)-6-(4-fluoro-1-(4-(6-(methylcarbamoyl)pyridin-3-yl)benzyl)-1H-indole-7-carboxamido)spiro[3.3]heptane-2-carboxylic acid]
9 | < 1 | 48 | O=C(NC1CC2(C1)CC(C(=O)O)C2)c1ccc(F)c2ccn(Cc3ccc(-c4ccnc(C(F)F)c4)cc3)c12 (stereo not shown) [Example 64, (Sa)-6-(1-(4-(2-(difluoromethyl)pyridin-4-yl)benzyl)-4-fluoro-1H-indole-7-carboxamido)spiro[3.3]heptane-2-carboxylic acid]
10 | < 1 | < 25 | O=C(NC1CC2(C1)CC(C(=O)O)C2)c1ccc(Cl)c2ccn(Cc3ccc(-c4ccccc4)cc3)c12 (stereo not shown) [Example 68, (Sa)-6-(1-([1,1′-biphenyl]-4-ylmethyl)-4-chloro-1H-indole-7-carboxamido)spiro[3.3]heptane-2-carboxylic acid]
11 | 2.2 | 33 | COc1cc(-c2ccc(Cn3ccc4c(Cl)ccc(C(=O)NC5CC6(C5)CC(C(=O)O)C6)c43)cc2)ccn1 (stereo not shown) [Example 69]
12 | < 1 | < 25 | CCOc1cc(-c2ccc(Cn3ccc4c(Cl)ccc(C(=O)NC5CC6(C5)CC(C(=O)O)C6)c43)cc2)ccn1 (stereo not shown) [Example 70, (Sa)-6-(4-chloro-1-(4-(2-ethoxypyridin-4-yl)benzyl)-1H-indole-7-carboxamido)spiro[3.3]heptane-2-carboxylic acid]
13 | 1.3 | 71 | O=C(NC1CC2(C1)CC(C(=O)O)C2)c1ccc(Cl)c2cnn(Cc3ccc(-n4cccn4)cc3)c12 (stereo not shown) [Example 73, (Sa)-6-(1-(4-(1H-pyrazol-1-yl)benzyl)-4-chloro-1H-indazole-7-carboxamido)spiro[3.3]heptane-2-carboxylic acid]
14 | < 1 | < 25 | CCOc1cc(-c2ccc(Cn3ncc4c(Cl)ccc(C(=O)NC5CC6(C5)CC(C(=O)O)C6)c43)cc2)ccn1 (stereo not shown) [Example 79, (Sa)-6-(4-chloro-1-(4-(2-ethoxypyridin-4-yl)benzyl)-1H-indazole-7-carboxamido)spiro[3.3]heptane-2-carboxylic acid]
15 | 1.1 | 55 | N#Cc1cccc(-c2ccc(Cn3ncc4c(Cl)ccc(C(=O)NC5CC6(C5)CC(C(=O)O)C6)c43)cc2)c1 (stereo not shown) [Example 80, (Sa)-6-(4-chloro-1-((3′-cyano-[1,1′-biphenyl]-4-yl)methyl)-1H-indazole-7-carboxamido)spiro[3.3]heptane-2-carboxylic acid]
16 | < 1 | < 25 | O=C(NC1CC2(C1)CC(C(=O)O)C2)c1ccc(Cl)c2cnn(Cc3ccc(C4=CCCCC4)c(F)c3)c12 (stereo not shown) [Example 81, (Sa)-6-(4-chloro-1-((2-fluoro-2′3′4′5′-tetrahydro-[1,1’-biphenyl]-4-yl)methyl)-1H-indazole-7-carboxamido)spiro[3.3]heptane-2-carboxylic acid]
17 | < 1 | < 25 | O=C(NC1CC2(C1)CC(C(=O)O)C2)c1ccc(Cl)c2cnn(Cc3ccc(C4=CCCC4)c(F)c3)c12 (stereo not shown) [Example 82, (Sa)-6-(4-chloro-1-(4-(cyclopent-1-en-1-yl)-3-fluorobenzyl)-1H-indazole-7-carboxamido)spiro[3.3]heptane-2-carboxylic acid]
18 | < 1 | < 25 | CCOc1nccc(-c2ccc(Cn3ncc4c(Cl)ccc(C(=O)NC5CC6(C5)CC(C(=O)O)C6)c43)cc2)n1 (stereo not shown) [Example 84, (Sa)-6-(4-chloro-1-(4-(2-ethoxypyrimidin-6-yl)benzyl)-1H-indazole-7-carboxamido)spiro[3.3]heptane-2-carboxylic acid]
19 | < 1 | 30 | CNC(=O)c1cccc(-c2ccc(Cn3ncc4c(Cl)ccc(C(=O)NC5CC6(C5)CC(C(=O)O)C6)c43)cc2)n1 (stereo not shown) [Example 85, (Sa)-6-(4-chloro-1-(4-(6-(methylcarbamoyl)pyridin-2-yl)benzyl)-1H-indazole-7-carboxamido)spiro[3.3]heptane-2-carboxylic acid]
20 | 1.8 | 36 | O=C(NC1CC2(C1)CC(C(=O)O)C2)c1ccc(Cl)c2cnn(Cc3ccc(-c4cccc(OC(F)(F)F)n4)cc3)c12 (stereo not shown) [Example 86]
21 | 1.3 | 97 | CCOc1cc(-c2ccc(Cn3ccc4c(OC)ncc(C(=O)NC5CC6(C5)CC(C(=O)O)C6)c43)cc2)ccn1 (stereo not shown) [Example 89, (Sa)-6-(1-(4-(2-ethoxypyridin-4-yl)benzyl)-4-methoxy-1H-pyrrolo[3,2-c]pyridine-7-carboxamido)spiro[3.3]heptane-2-carboxylic acid]
22 | < 1 | 57 | CCOc1ncc(C(=O)NC2CC3(C2)CC(C(=O)O)C3)c2c1ccn2Cc1ccc(-c2ccccc2)cc1 (stereo not shown) [Example 90, (Sa)-6-(1-([1,1′-biphenyl]-4-ylmethyl)-4-ethoxy-1H-pyrrolo[3,2-c]pyridine-7-carboxamido)spiro[3.3]heptane-2-carboxylic acid]
23 | < 1 | 59 | CCOc1ccc(-c2ccc(Cn3ccc4c(OC)ncc(C(=O)NC5CC6(C5)CC(C(=O)O)C6)c43)cc2)cn1 (stereo not shown) [Example 91, (Sa)-6-(1-(4-(6-ethoxypyridin-3-yl)benzyl)-4-methoxy-1H-pyrrolo[3,2-c]pyridine-7-carboxamido)spiro[3.3]heptane-2-carboxylic acid]
24 | 9 | 83 | O=C(NC1CC2(C1)CC(C(=O)O)C2)c1ccc(Cl)c2cnn(Cc3ccc(OC(F)(F)F)cc3)c12 (stereo not shown) [Example 95, (Sa)-6-(4-chloro-1-(4-(trifluoromethoxy)benzyl)-1H-indazole-7-carboxamido)spiro[3.3]heptane-2-carboxylic acid]
25 | < 1 | < 25 | O=C(NC1CC2(C1)CC(C(=O)O)C2)c1ccc(Cl)c2cnn(Cc3ccc4ccccc4c3)c12 (stereo not shown) [Example 96, (Sa)-6-(4-chloro-1-(naphthalen-2-ylmethyl)-1H-indazole-7-carboxamido)spiro[3.3]heptane-2-carboxylic acid]
26 | < 1 | 25 | COc1ccc(-c2ccc(Cn3ccc4c(F)ccc(C(=O)NC5CC6(CC(CC(=O)O)C6)C5)c43)cc2)cn1 (stereo not shown) [Example 138, (Ra)-2-(6-(4-Fluoro-1-(4-(6-methoxypyridin-3-yl)benzyl)-1H-indole-7-carboxamido)spiro[3.3]heptan-2-yl)acetic acid]
27 | < 1 | < 25 | COc1cc(-c2ccc(Cn3ccc4c(F)ccc(C(=O)NC5CC6(CC(CC(=O)O)C6)C5)c43)cc2)ccn1 (stereo not shown) [Example 139, (Ra)-2-(6-(4-Fluoro-1-(4-(2-methoxypyridin-4-yl)benzyl)-1H-indole-7-carboxamido)spiro[3.3]heptan-2-yl)acetic acid]
28 | < 1 | 35 | O=C(O)CC1CC2(C1)CC(NC(=O)c1ccc(Cl)c3cnn(Cc4ccc(-c5ccccc5F)cc4)c13)C2 (stereo not shown) [Example 143, (Ra)-2-(6-(4-Chloro-1-((2′-fluoro-[1,1′-biphenyl]-4-yl)methyl)-1H-indazole-7-carboxamido)spiro[3.3]heptan-2-yl)acetic acid]
29 | < 1 | < 25 | N#Cc1cccc(-c2ccc(Cn3ncc4c(Cl)ccc(C(=O)NC5CC6(CC(CC(=O)O)C6)C5)c43)cc2)c1 (stereo not shown) [Example 144, (Ra)-2-(6-(4-Chloro-1-((3′-cyano-[1,1-biphenyl]-4-yl)methyl)-1H-indazole-7-carboxamido)spiro[3.3]heptan-2-yl)acetic acid]
